The source of these data is ChEMBL document CHEMBL5104126, “Discovery of 2,3-dihydro-1H-pyrrolo[3,4-b]quinolin-1-one derivatives as possible antileishmanial agents” (RSC Med Chem, 2022).

For data set [1], the system named is J774. In words: Cytotoxicity against mouse macrophage J774 cells assessed as reduction in cell viability at 6.25 to 25 uM incubated for 72 hrs by MTT assay. Format: toxicity, cell-based. The settings on record: j774, 72 h, dose 6.25-25 µM. Background: Tetrazolium dyes change colour on reduction, which living cells bring about.
Data set [2] concerns J774. The experiment in a line: Cytotoxicity against mouse macrophage J774 cells assessed as reduction in cell viability at 50 to 100 uM incubated for 72 hrs by MTT assay. Format: toxicity, cell-based. The settings on record: j774, 72 h, dose 50-100 µM.
Data set [3] deals with Leishmania donovani. In words: Antileishmanial activity against Leishmania donovani MHOM/IN/80/Dd8 amastigotes harboring luciferase gene infected in mouse J774 cells assessed as inhibition of parasite viability at 25 uM incubated for 72 hrs by Steady-Glo reagent based luciferase assay relative to control. Format: functional. Conditions: MHOM/IN/80/Dd8, J774.
Data set [4] relates to Leishmania donovani. In words: Antileishmanial activity against Leishmania donovani MHOM/IN/80/Dd8 promastigotes harboring luciferase gene infected in mouse J774 cells assessed as inhibition of parasite viability at 25 uM incubated for 72 hrs by Steady-Glo reagent based luciferase assay relative to control. Format: functional. The settings on record: MHOM/IN/80/Dd8, J774.

On to `COc1ccc2nc3c(c(-c4ccccc4)c2c1)C(=O)N(C1(C(=O)NC(C)(C)C)CCCC1)C3`, for which the figures for the Activity result in the data set with J774 [1] and with J774 [2] were “Non-Toxic” and “>= 30%”, respectively. Further, the inhibition (in general, the share of the control response that was lost under treatment) at 25 µM in the data set on Leishmania donovani [3] was found to be 45%; in the data set on Leishmania donovani [4], 40%.
`COc1ccc2nc3c(c(-c4ccccc4)c2c1)C1=NC(=O)C(c2cc(OC)c(OC)c(OC)c2)N1C3` (stereo not given): the figures for the Activity entry in the data set on J774 [1] and in the data set with J774 [2] were “Non-Toxic” and “>= 30%”, respectively. In addition, the inhibition at 25 µM was determined as 31% in the data set with Leishmania donovani [3] and 39% with Leishmania donovani [4].
The matching figures for `COc1ccc2nc3c(c(-c4ccccc4)c2c1)C1=NC(=O)C(c2ccc(Br)cc2)N1C3` (stereo not given): “Non-Toxic”, “>= 30%”, 31% and 39%.
The like results for `COc1ccc2nc3c(c(-c4ccccc4)c2c1)C1=NC(=O)C(c2ccccc2)N1C3` (stereo not given) were, in that order, “Non-Toxic”, “>= 30%”, 31% and 39%.
For the compound `COc1ccc2nc3c(c(-c4ccccc4)c2c1)C(=O)N(C(C)(C)C(=O)NC(C)(C)C)C3`, the Activity entry in the data set on J774 [1] is listed as “Non-Toxic”; in the data set on J774 [2] it was “>= 30%”. Also, the inhibition at 25 µM in the data set with Leishmania donovani [3] came to 45%; with Leishmania donovani [4], 40%.
Take `COc1ccc2nc3c(c(-c4ccccc4)c2c1)C1=NC(=O)C(C)(C)N1C3`: the Activity entry in the data set on J774 [1] is “Non-Toxic”; in the data set with J774 [2], “>= 30%”. In addition, the inhibition at 25 µM worked out at 31% in the data set with Leishmania donovani [3] and 39% with Leishmania donovani [4].
The like results for `COc1ccc2nc3c(c(-c4ccccc4)c2c1)C1=NC(=O)C2(CCCC2)N1C3` were, in that order, “Non-Toxic”, “>= 30%”, 31% and 39%.
`CC(C)(C)NC(=O)C(C)(C)N1Cc2nc3ccc(O)cc3c(-c3ccccc3)c2C1=O`: the Activity result with J774 [1] is reported as “Non-Toxic”; in the data set on J774 [2] it was “>= 30%”. Also, the inhibition at 25 µM came out at 69% in the data set with Leishmania donovani [3] and 77.2% in the data set on Leishmania donovani [4].
The matching figures for `CC1(C)C(=O)N=C2c3c(nc4ccc(Br)cc4c3-c3ccccc3)CN21`: “Non-Toxic”, “>= 30%”, 31% and 39%.
The matching figures for `COc1ccc2nc3c(c(-c4ccccc4)c2c1)C1=NC(=O)C(c2ccc(C#N)cc2)N1C3` (stereo not given): “Non-Toxic”, “>= 30%”, 31% and 39%.
The like results for `CC(C)(C)NC(=O)C(c1ccc(F)cc1)N1Cc2nc3ccc(O)cc3c(-c3ccccc3)c2C1=O` (stereo not given) were, in that order, “Non-Toxic”, “>= 30%”, 69% and 72.7%.
For `COc1ccc2nc3c(c(-c4ccccc4)c2c1)C(=O)N(C(C(=O)NC(C)(C)C)c1ccc(O)cc1)C3` (stereo not given), the Activity result is reported as “Non-Toxic” in the data set on J774 [1] and “>= 30%” in the data set with J774 [2]. Further, the inhibition at 25 µM in the data set on Leishmania donovani [3] was 45%; with Leishmania donovani [4], 40%.
The like results for `CC(C)(C(N)=O)N1Cc2nc3ccccc3c(-c3ccccc3)c2C1=O` were, in that order, “Non-Toxic”, “>= 30%”, 46% and 61%.
The matching figures for `COc1ccc2nc3c(c(-c4ccccc4)c2c1)C(=O)N(C(C(=O)NC(C)(C)C)c1ccc(C(F)(F)F)cc1)C3` (stereo not given): “Non-Toxic”, “>= 30%”, 45% and > 70%.
The matching figures for `COc1ccc2nc3c(c(-c4ccccc4)c2c1)C(=O)N(C(C(=O)NC(C)(C)C)c1cc(OC)c(OC)c(OC)c1)C3` (stereo not given): “Non-Toxic”, “>= 30%”, 45% and 40%.
